# From patent US20250186403A1 (ARIZONA BOARD OF REGENTS ON BEHALF OF THE UNIVERSITY OF …, priority 2022, published 2025)
# How the values were obtained:
# Cne-H99 = assay: Efficacy in cryptococcal pulmonary infection mouse model; assay type: in vivo, Cryptococcus neoformans; BALB/c mice
# Procedure: Blood samples were collected at 0, 0.5, 1, 2, 4, 8, 12, 16, 24, and 36 h after oral gavage. […] Other PK parameters are in Table 4. The values represent means±SD. […] On day 0, mice were infected with H99 (10^7 cells/mice) intranasally or mock-infected with PBS. Mice were euthanized on day 5, and lungs were dissected out, homogenized in RPMI-1640-MOPS media, and plated onto Sabouraud dextrose agar plates containing antibiotics. Plates were incubated at 30° C. for 72 h, and colonies were counted. […] VC: Vehicle control, (90% corn oil, 10% DMSO). Dpi: Days post-infection. CFU: Colony-forming units.
# Efficacy studies in the mouse: The in vivo studies were done in a mouse model with the approval of IACUC, Wadsworth Center, Albany, NY. Male and female BALB/c mice 4-5-week-old were purchased from Jackson laboratory and quarantined for a week before shifting to the experimental room. The mice were grouped randomly with a male: female ratio 1:1, ears were punched as identification code. The formulation of the compound was done by dissolving the CMN in absolute DMSO and diluted in corn oil. The formulations were done daily, just before the dosing. […] Following this, the mice were anesthetized and infected with Cne-H99 cells ([…] in 30 μl PBS/mouse) intranasally. […] Mice were weighed every day, and visual observations were made for activity, movement, coat condition, etc. Food and water were ad libitum. On day 5, the mice were anesthetized and euthanized. Lung tissues were dissected out, weighed, and homogenized in 1 ml RPMI-MOPS media using a glass homogenizer. After log dilution of the tissue suspension in RPMI-MOPS, 100 μl from each dilution was plated onto SD agar plates with antibiotics (20 μg/ml penicillin, 40 μg/ml streptomycin, […], 25 μg/ml chloramphenicol). The plates were incubated at 30° C. for 3 days before counting the colonies. The counts were normalized with the weight of the lung tissue taken during the necropsy. The fungal load in the groups was compared with Student's t-test, and p<0.05 was considered as significant.
# Cne cells = assay: Checkerboard assay with known antifungals; assay type: cell-based, Cryptococcus neoformans
# Procedure: After adding Cne cells, the plates were incubated for 48 h. Well contents were mixed by pipette, and absorbance was read at 630 nm. […] Based on the FIC, the combinatorial effects are decided as in Table 2.
# [1] = tested on: Cga split-cfGFP-Prp8 intein protein; assay: Split GFP-Prp8 intein splicing assay (SDS-PAGE); assay type: biochemical, Cryptococcus gattii; conditions: vs DMSO control, 30 μM protein, 24 h
# Procedure: TCEP is added to a final concentration of 100 µM and incubated for 24 h. The substrate Nano-Glo luciferase (Promega) was added, and the resulting luminescence was read. IC50 was calculated using GraphPad prism. […] TCEP was added to a concentration of 1 mM and incubated for 24 h. From this reaction mixture, 10 μl was mixed with an equal volume of 2×SDA-PAGE loading dye and loaded onto 12% SDS-PAGE gel without boiling the sample. The gel was scanned with UV using Chemidoc (Bio Rad), and band intensities were quantified using Image Lab software. […] Cells were harvested and washed in PBS, lysed with bead lyser, and centrifuged at 10,000 rpm. An equal quantity of protein (50 μg) from each treatment was loaded onto 12% SDS-PAGE and blotted onto the NC membrane, blocked with 5% skimmed milk. The membrane was probed with anti-prp8 intein rabbit polyclonal sera, followed by goat anti-rabbit HRP antibody. Signals were developed using a chemiluminescent kit. The density of the spliced intein bands (˜20 kDa) were quantified using Image lab software. A band at ˜130 kDa is uncharacterized, as explained below. NC: nitrocellulose. Abs: absorbance […]
# TCEP to a final concentration of 1 mM was added to induce splicing and further incubated at RT for 24 h. […] The band densities were quantified using image lab software.
structure (smiles),measurement,setting,value
"CNc1ccc2oc(C[C@H]3O[C@@]4(CC[C@H]3C)O[C@H]([C@H](C)C(=O)c3ccc[nH]3)[C@H](C)C[C@H]4C)nc2c1C(=O)O [CMN, calcimycin]",reduction in fungal burden vs vehicle control,"Cne-H99; CMN 20 mg/Kg BW orally once daily for 5 days, day 5",3 fold
same,fungal burden in the lungs,"Cne-H99; CMN 20 mg/Kg BW orally once daily for 5 days, day 5, vehicle 1.8×10^8",6.3×10^7 CFU/g lung tissue
same,reduction in lung-fungal load,Cne-H99; CMN 20 mg/kg body weight,60%
same,MIC,"Cne cells; Cryptococcus neoformans, 48 h, read-out: MIC Alone",1.31 µg/mL
same,MIC Comb,"Cne cells; combination CMN + 5-Fluorocytosine, well D2",0.65 µg/mL
same,MIC Comb,"Cne cells; combination CMN + Amphotericin B, well E6",0.33 µg/mL
same,MIC Comb,"Cne cells; combination CMN + Itraconazole, well E4",0.33 µg/mL
same,MIC Comb,"Cne cells; combination CMN + Voriconazole, well D4",0.65 µg/mL
same,splicing of split GFP-Prp8 intein,[1],inhibited with CMN dose-dependently
